In US6914045B2, “Glycopeptide antibiotics” (Wyeth Holdings Corporation, priority 2001, dated 2005):

Assays:
Assay in all cases: in vitro antibacterial evaluation, MIC by broth dilution
Assay type in all cases: cell-based
Escherichia coli = details: 18 hours at 35° C.
Enterococcus sp. = details: broth dilution, 18 hours at 35° C.
Procedure, shortened: (§1)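 Read-out: the lowest concentration at which the test strain fails to grow. Serial dilutions (64-0.06 μg/mL) in Muller-Hinton II […], 5×10^5 CFU/mL inoculum, NCCLS M7-A2 procedure.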

Streptococcus sp. = details: broth dilution, 18 hours at 35° C.
Procedure, shortened: as §1

Staphylococcus sp. = details: broth dilution, 18 hours at 35° C.
Procedure, shortened: as §1

CCOc1cc(COCC2OC(OC3C(CO)OC(Oc4ccc(CC5NC(=O)C(C(C)c6ccccc6)NC(=O)CNC(=O)C(CO)NC(=O)C(C(O)C6CNC(=N)N6C6OC(CO)C(O)C(O)C6O)NC(=O)C(C(O)C6CNC(=N)N6)NC5=O)cc4)C(O)C3O)C(O)C(O)C2O)ccc1OC (stereo not shown) [Example 238]
1 µg/mL: MIC Streptococcus pneumoniae (ATCC 6301) (Streptococcus sp.) | MIC Streptococcus pneumoniae (GC 4565) (Streptococcus sp.) | MIC Streptococcus pyogenes (GC 4563) (Streptococcus sp.) | MIC Streptococcus pneumoniae (ATCC 6301) (Streptococcus sp.; inoculum 5×10^5 CFU/mL, strain ATCC 6301) | MIC Streptococcus pyogenes (GC 4563) (Streptococcus sp.; inoculum 5×10^5 CFU/mL, strain GC 4563) | MIC Streptococcus pneumoniae (GC 4565) (Streptococcus sp.; inoculum 5×10^5 CFU/mL, strain GC 4565) | MIC Coagulase Negative Staphylococcus (GC 6257) (Staphylococcus sp.) | MIC Coagulase Negative Staphylococcus (GC 6257) (Staphylococcus sp.; strain GC 6257)
2 µg/mL: MIC Escherichia coli (GC 4560) (Escherichia coli) | MIC Streptococcus agalactiae (GC 4564) (Streptococcus sp.) | MIC Streptococcus agalactiae (GC 4564) (Streptococcus sp.; inoculum 5×10^5 CFU/mL, strain GC 4564) | MIC Coagulase Negative Staphylococcus (GC 4547) (Staphylococcus sp.) | MIC Coagulase Negative Staphylococcus (GC 4548) (Staphylococcus sp.) | MIC Coagulase Negative Staphylococcus (GC 4549) (Staphylococcus sp.) | MIC Staphylococcus aureus (GC 4545) (Staphylococcus sp.) | MIC Staphylococcus haemolyticus (GC 4546) (Staphylococcus sp.) | MIC Staphylococcus aureus (GC 4545) (Staphylococcus sp.; strain GC 4545) | MIC Staphylococcus haemolyticus (GC 4546) (Staphylococcus sp.; strain GC 4546) | MIC Coagulase Negative Staphylococcus (GC 4547) (Staphylococcus sp.; strain GC 4547) | MIC Coagulase Negative Staphylococcus (GC 4548) (Staphylococcus sp.; strain GC 4548) | MIC Coagulase Negative Staphylococcus (GC 4549) (Staphylococcus sp.; strain GC 4549)
>64 µg/mL: MIC Escherichia coli (ATCC 25922) (Escherichia coli) | MIC Escherichia coli (GC 4559) (Escherichia coli)
0.5 µg/mL: MIC Streptococcus pneumoniae (GC 1894) (Streptococcus sp.) | MIC Streptococcus pneumoniae (GC 1894) (Streptococcus sp.; inoculum 5×10^5 CFU/mL, strain GC 1894)
4 µg/mL: MIC Enterococcus faecium (GC 4557) (Enterococcus sp.) | MIC Enterococcus faecium (GC 4557) (Enterococcus sp.; strain GC 4557) | MIC Coagulase Negative Staphylococcus (GC 4551) (Staphylococcus sp.) | MIC Staphylococcus aureus (ATCC 29213) (Staphylococcus sp.) | MIC Staphylococcus aureus (GC 1131) (Staphylococcus sp.) | MIC Staphylococcus aureus (GC 3051) (Staphylococcus sp.) | MIC Staphylococcus aureus (GC 4541) (Staphylococcus sp.) | MIC Staphylococcus aureus (GC 4542) (Staphylococcus sp.) | MIC Staphylococcus aureus-SMITH (GC 4543) (Staphylococcus sp.) | MIC Staphylococcus aureus (ATCC 29213) (Staphylococcus sp.; strain ATCC 29213) | MIC Staphylococcus aureus (GC 1131) (Staphylococcus sp.; strain GC 1131) | MIC Staphylococcus aureus (GC 3051) (Staphylococcus sp.; strain GC 3051) | MIC Staphylococcus aureus (GC 4541) (Staphylococcus sp.; strain GC 4541) | MIC Staphylococcus aureus (GC 4542) (Staphylococcus sp.; strain GC 4542) | MIC Staphylococcus aureus-SMITH (GC 4543) (Staphylococcus sp.; strain GC 4543) | MIC Coagulase Negative Staphylococcus (GC 4551) (Staphylococcus sp.; strain GC 4551)
16 µg/mL: MIC Enterococcus avium (GC 4558) (Enterococcus sp.) | MIC Enterococcus faecalis (ATCC 29212) (Enterococcus sp.) | MIC Enterococcus faecalis (GC 2242) (Enterococcus sp.) | MIC Enterococcus faecalis (GC 2691) (Enterococcus sp.) | MIC Enterococcus faecalis (GC 6189) (Enterococcus sp.) | MIC Enterococcus faecium (GC 2243) (Enterococcus sp.) | MIC Enterococcus faecalis (ATCC 29212) (Enterococcus sp.; strain ATCC 29212) | MIC Enterococcus faecium (GC 2243) (Enterococcus sp.; strain GC 2243) | MIC Enterococcus avium (GC 4558) (Enterococcus sp.; strain GC 4558) | MIC Enterococcus faecalis (GC 6189) (Enterococcus sp.; strain GC 6189) | MIC Enterococcus faecalis (GC 2242) (Enterococcus sp.; inoculum 5×10^5 CFU/mL, strain GC 2242) | MIC Enterococcus faecalis (GC 2691) (Enterococcus sp.; inoculum 5×10^5 CFU/mL, strain GC 2691)
32 µg/mL: MIC Enterococcus faecalis (GC 3059) (Enterococcus sp.) | MIC Enterococcus faecalis (GC 4552) (Enterococcus sp.) | MIC Enterococcus faecalis (GC 4553) (Enterococcus sp.) | MIC Enterococcus faecalis (GC 4554) (Enterococcus sp.) | MIC Enterococcus faecium (GC 4556) (Enterococcus sp.) | MIC Enterococcus faecalis (GC 4552) (Enterococcus sp.; strain GC 4552) | MIC Enterococcus faecalis (GC 4553) (Enterococcus sp.; strain GC 4553) | MIC Enterococcus faecalis (GC 4554) (Enterococcus sp.; strain GC 4554) | MIC Enterococcus faecium (GC 4556) (Enterococcus sp.; strain GC 4556) | MIC Enterococcus faecalis (GC 3059) (Enterococcus sp.; inoculum 5×10^5 CFU/mL, strain GC 3059)
8 µg/mL: MIC Staphylococcus aureus (GC 3053) (Staphylococcus sp.) | MIC Staphylococcus aureus (GC 4544) (Staphylococcus sp.) | MIC Staphylococcus aureus (GC 3053) (Staphylococcus sp.; strain GC 3053) | MIC Staphylococcus aureus (GC 4544) (Staphylococcus sp.; strain GC 4544)
